Results from patent publication US20250213183A1, “SYSTEM AND METHOD OF MONITORING NOCICEPTION AND ANALGESIA DURING ADMINISTRATION OF GENERAL ANESTHESIA” (The General Hospital Corporation, priority 2022, published 2025).

Conditions: single subject, forehead sensor, after propofol; FIG. 6B

## CC(C)c1cccc(C(C)C)c1O [propofol]
  EDA skin conductance response (SCR) after induction of general anesthesia: < 5 micro-Siemens
